Results from patent publication US20190307776A1, “AZA-S[…] HUMAN IMMUNODEFICIENCY VIRUS REPLICATION” (priority 2016, published 2019).
pEC50: −log10 of the molar value.

test system: recombinant NL4-3 virus; test: HIV cell culture assay; format: cell-based; details: Human immunodeficiency virus 1, NL43, MT2
How it was run: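 Antiviral activity measured in MT-2 cells infected 4–5 days with NL4-3 carrying Renilla luciferase in place of part of nef plus Gag P373S, in the presence of serial inhibitor dilutions. Read-out was luciferase activity by Dual Luciferase lysis/substrate mix.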

Going from `C=C(C)[C@@H]1CC[C@]2(CNCCCN3CCS(=O)(=O)CC3)CC[C@]3(C)[C@H](CC[C@@H]4[C@@]5(C)CCN(C(=O)c6ccc(C(=O)O)cc6)C(C)(C)[C@@H]5CC[C@]43C)[C@@H]12` [Example 30, 4-((4aR,6aR,6bR,8aS,11R,11aR,11bR,13aR,13bR)-8a-(((3-(1,1-dioxidothiomorpholino)propyl)amino)methyl)-4,4,6a,6b,13b-pentamethyl-11-(prop-1-en-2-yl)icosahydro-1H-cyclopenta[5,6]naphtho[2,1-f]isoquinoline-3-carbonyl)benzoic acid] to `C=C(C)[C@@H]1CC[C@]2(CNCCCN3CCS(=O)(=O)CC3)CC[C@]3(C)[C@H](CC[C@@H]4[C@@]5(C)CCN(C(=O)CCc6ccc(C(=O)O)cc6)C(C)(C)[C@@H]5CC[C@]43C)[C@@H]12` [Example 28, 4-(3-((4aR,6aR,6bR,8aS,11R,11aR,11bR,13aR,13bR)-8a-(((3-(1,1-dioxidothiomorpholino)propyl)amino)methyl)-4,4,6a,6b,13b-pentamethyl-11-(prop-1-en-2-yl)hexadecahydro-1H-cyclopenta[5,6]naphtho[2,1-f]isoquinolin-3(2H,4H,13bH)-yl)-3-oxopropyl)benzoic acid], the pEC50 falls from 6.96 to 6.03 (0.93 log units).

`C=C(C)[C@@H]1CC[C@]2(CN(C)CCCN3CCS(=O)(=O)CC3)CC[C@]3(C)[C@H](CC[C@@H]4[C@@]5(C)CCN(c6ccc(C(=O)O)nc6)C(C)(C)[C@@H]5CC[C@]43C)[C@@H]12` [Example 51, 5-((4aR,6aR,6bR,8aS,11R,11aR,11bR,13aR,13bR)-8a-(((3-(1,1-dioxidothiomorpholino)propyl)(methyl)amino)methyl)-4,4,6a,6b,13b-pentamethyl-11-(prop-1-en-2-yl)hexadecahydro-1H-cyclopenta[5,6]naphtho[2,1-f]isoquinolin-3(2H,4H,13bH)-yl)picolinic acid] and `C=C(C)[C@@H]1CC[C@]2(CNCCCN3CCS(=O)(=O)CC3)CC[C@]3(C)[C@H](CC[C@@H]4[C@@]5(C)CCN(c6ccc(C(=O)O)c(F)c6)C(C)(C)[C@@H]5CC[C@]43C)[C@@H]12` [Example 45, 4-((4aR,6aR,6bR,8aS,11R,11aR,11bR,13aR,13bR)-8a-(((3-(1,1-dioxidothiomorpholino)propyl)amino)methyl)-4,4,6a,6b,13b-pentamethyl-11-(prop-1-en-2-yl)icosahdro-3H-cyclopenta[5,6]naphtho[2,1-f]isoquinolin-3-yl)-2-fluorobenzoic acid] are within 0.2 log units of each other in pEC50: 7.59 for the first, 7.70 for the second.

First: C=C(C)[C@@H]1CC[C@]2(CO)CC[C@]3(C)[C@H](CC[C@@H]4[C@@]5(C)CCCN(C(=O)CC(=O)O)C(C)(C)C5CC[C@]43C)[C@@H]12 (stereo partly drawn) [Example 1, 3-((7aR,7bR,9aS,12R,12aR,12bR,14aR,14bR)-9a-(hydroxymethyl)-5,5,7a,7b,14b-pentamethyl-12-(prop-1-en-2-yl)icosahydrocyclopenta[7,8]phenanthro[2,1-c]azepin-4(1H)-yl)-3-oxopropanoic acid]
Second: C=C(C)[C@@H]1CC[C@]2(CO)CC[C@]3(C)[C@H](CC[C@@H]4[C@@]5(C)CCN(C(=O)CC(=O)O)C(C)(C)C5CC[C@]43C)[C@@H]12 (stereo partly drawn) [Example 7, 3-((6aR,6bR,8aS,11R,11aR,11bR,13aR,13bR)-8a-(hydroxymethyl)-4,4,6a,6b,13b-pentamethyl-11-(prop-1-en-2-yl)icosahydro-3H-cyclopenta[5,6]naphtho[2,1-f]isoquinolin-3-yl)-3-oxopropanoic acid]
The pEC50 of the first is 0.68 log units lower: 5.64 for the first, 6.32 for the second. The second is the more potent here.

`C=C(C)[C@@H]1CC[C@]2(CNCCCN3CCS(=O)(=O)CC3)CC[C@]3(C)[C@H](CC[C@@H]4[C@@]5(C)CCN(C(=O)C(=O)NC6(C(=O)O)CC6)C(C)(C)[C@@H]5CC[C@]43C)[C@@H]12` [Example 39, 1-(2-((4aR,6aR,6bR,8aS,11R,11aR,11bR,13aR,13bR)-8a-(((3-(1,1-dioxidothiomorpholino)propyl)amino)methyl)-4,4,6a,6b,13b-pentamethyl-11-(prop-1-en-2-yl)hexadecahydro-1H-cyclopenta[5,6]naphtho[2,1-f]isoquinolin-3(2H,4H,13bH)-yl)-2-oxoacetamido)cyclopropanecarboxylic acid] and `C=C(C)[C@@H]1CC[C@]2(CNCCCN3CCS(=O)(=O)CC3)CC[C@]3(C)[C@H](CC[C@@H]4[C@@]5(C)CCN(CC(=O)O)C(C)(C)[C@@H]5CC[C@]43C)[C@@H]12` [Example 33, 2-((4aR,6aR,6bR,8aS,11R,11aR,11bR,13aR,13bR)-8a-(((3-(1,1-dioxidothiomorpholino)propyl)amino)methyl)-4,4,6a,6b,13b-pentamethyl-11-(prop-1-en-2-yl)hexadecahydro-1H-cyclopenta[5,6]naphtho[2,1-f]isoquinolin-3(2H,4H,13bH)-yl)acetic acid] cannot be ordered by pEC50: under 5.52 for the first, under 5.52 for the second.

Going from `C=C(C)[C@@H]1CC[C@]2(CNCCCN3CCS(=O)(=O)CC3)CC[C@]3(C)[C@H](CC[C@@H]4[C@@]5(C)CCN(c6ccc(N)cc6)C(C)(C)[C@@H]5CC[C@]43C)[C@@H]12` [Example 47, 4-(3-((((4aR,6aR,6bR,8aS,11R,11aR,11bR,13aR,13bR)-3-(4-aminophenyl)-4,4,6a,6b,13b-pentamethyl-11-(prop-1-en-2-yl)icosahydro-1H-cyclopenta[5,6]naphtho[2,1-f]isoquinolin-8a-yl)methyl)amino)propyl)thiomorpholine 1,1-dioxide] to `C=C(C)[C@@H]1CC[C@]2(CNCCCN3CCS(=O)(=O)CC3)CC[C@]3(C)[C@H](CC[C@@H]4[C@@]5(C)CCN(C(=O)CCC(C)(C)C(=O)O)C(C)(C)[C@@H]5CC[C@]43C)[C@@H]12` [Example 25, 5-((4aR,6aR,6bR,8aS,11R,11aR,11bR,13aR,13bR)-8a-(((3-(1,1-dioxidothiomorpholino)propyl)amino)methyl)-4,4,6a,6b,13b-pentamethyl-11-(prop-1-en-2-yl)hexadecahydro-1H-cyclopenta[5,6]naphtho[2,1-f]isoquinolin-3(2H,4H,13bH)-yl)-2,2-dimethyl-5-oxopentanoic acid], the pEC50 rises from under 6.48 to 6.92.

Going from `C=C(C)[C@@H]1CC[C@]2(CO)CC[C@]3(C)[C@H](CC[C@@H]4[C@@]5(C)CCN(S(=O)(=O)c6ccc(C(=O)O)cc6)C(C)(C)C5CC[C@]43C)[C@@H]12` (stereo partly drawn) [Example 20, 4-(((6aR,6bR,8aS,11R,11aR,11bR,13aR,13bR)-8a-(hydroxymethyl)-4,4,6a,6b,13b-pentamethyl-11-(prop-1-en-2-yl)icosahydro-3H-cyclopenta[5,6]naphtho[2,1-f]isoquinolin-3-yl)sulfonyl)benzoic acid] to `C=C(C)[C@@H]1CC[C@]2(CO)CC[C@]3(C)[C@H](CC[C@@H]4[C@@]5(C)CCN(S(=O)(=O)c6cccc(C(=O)O)c6)C(C)(C)C5CC[C@]43C)[C@@H]12` (stereo partly drawn) [Example 17, 3-(((6aR,6bR,8aS,11R,11aR,11bR,13aR,13bR)-8a-(hydroxymethyl)-4,4,6a,6b,13b-pentamethyl-11-(prop-1-en-2-yl)icosahydro-3H-cyclopenta[5,6]naphtho[2,1-f]isoquinolin-3-yl)sulfonyl)benzoic acid], the pEC50 falls from 5.51 to 5.31 (0.20 log units).

`C=C(C)[C@@H]1CC[C@]2(C(=O)O)CC[C@]3(C)[C@H](CC[C@@H]4[C@@]5(C)CCN(c6ncc(C(=O)O)cn6)C(C)(C)[C@@H]5CC[C@]43C)[C@@H]12` [Example 52, (4aR,6aR,6bR,8aS,11R,11aR,11bR,13aR,13bR)-3-(5-carboxypyrimidin-2-yl)-4,4,6a,6b,13b-pentamethyl-11-(prop-1-en-2-yl)icosahydro-1H-cyclopenta[5,6]naphtho[2,1-f]isoquinoline-8a-carboxylic acid] showed a pEC50 of 7.21.
